Test results published in US20210181179A1, “DIAGNOSIS AND TREATMENT OF IMMUNOTHERAPY-INDUCED NEUROTOXICITY” (MEMORIAL SLOAN KETTERING CANCER CENTER, priority 2018, published 2021).

Experiments:
CCF-STTG1 (astrocytoma) = assay: Net production of TRP metabolites in media samples, CCF-STTG1; type: cell-based, human
Description: (§1) Under physiological conditions in the brain, kynurenine metabolism is driven by microglial cells and astrocytes with preferential production of QUIN and KA respectively. […] This may have been due to T cells producing cytokines and/or intermediate metabolites that are further metabolized to QUIN by the cells. In order to identify specific factors that may lead to tryptophan-kynurenine pathway up-regulation for QUIN production, we tested a panel of cytokine and chemokines implicated in NTX and CRS. […] We initially evaluated the panel of the select factors individually (FIGS. 16 A-B). We selected several cytokines based on their effect on rate-limiting enzymes for QUIN production. These included IFNγ, TNF, […], CXCL10 and […]. These enzymes were selected based on their regulation of key enzymes, KMO and KYNU, which may lead to supraphysiological accumulation of QUIN. These factors were further evaluated, individually or in combination, on astrocytoma, microglial, and primary monocyte-derived macrophages for mRNA levels of kynurenine pathway enzymes and kynurenine metabolites production (FIG. 17).

DOAY (medulloblastoma) = assay: Net production of TRP metabolites in media samples, DOAY; type: cell-based
HCN2 (cortical neuron) = assay: Net production of TRP metabolites in media samples, HCN2; type: cell-based
HMC3 (microglia) = assay: Net production of TRP metabolites in media samples, HMC3; type: cell-based, human
Description: as §1

THP-1 (monocyte) = assay: Net production of TRP metabolites in media samples, THP-1; type: cell-based
ALL3.1 (B-ALL) = assay: Net production of TRP metabolites in media samples, ALL3.1; type: cell-based
BV173 (B-ALL) = assay: Net production of TRP metabolites in media samples, BV173; type: cell-based
CCRF-SB (B-ALL) = assay: Net production of TRP metabolites in media samples, CCRF-SB; type: cell-based
KARPAS231 (B-ALL) = assay: Net production of TRP metabolites in media samples, KARPAS231; type: cell-based
RS4; 11 (B-ALL) = assay: Net production of TRP metabolites in media samples, RS4; 11; type: cell-based
SUP-B15 (B-ALL) = assay: Net production of TRP metabolites in media samples, SUP-B15; type: cell-based

## IFNα
CCF-STTG1 (astrocytoma)
  Net production of TRP metabolites in media samples: 3-HK: −13.12 ± 0.55
  Net production of TRP metabolites in media samples: HAA: 10.54 ± 0.8
  Net production of TRP metabolites in media samples: KA: 3.46 ± 1
  Net production of TRP metabolites in media samples: KYN: 4734.38 ± 128
  Net production of TRP metabolites in media samples: QUIN: 15.16 ± 5.5
DOAY (medulloblastoma)
  Net production of TRP metabolites in media samples: 3-HK: −13.46 ± 0.5
  Net production of TRP metabolites in media samples: HAA: 11.62 ± 0.8
  Net production of TRP metabolites in media samples: KA: 10.28 ± 3.2
  Net production of TRP metabolites in media samples: KYN: 263.2 ± 20^
  Net production of TRP metabolites in media samples: QUIN: 54.5 ± 21.8
HCN2 (cortical neuron)
  Net production of TRP metabolites in media samples: 3-HK: −4.46 ± 8.2
  Net production of TRP metabolites in media samples: HAA: 5.38 ± 0.4
  Net production of TRP metabolites in media samples: KA: 3.26 ± 6.1
  Net production of TRP metabolites in media samples: KYN: 105.24 ± 37
  Net production of TRP metabolites in media samples: QUIN: 13.26 ± 31.6
HMC3 (microglia)
  Net production of TRP metabolites in media samples: 3-HK: 10.4 ± 18.6
  Net production of TRP metabolites in media samples: HAA: 0.56 ± 1.8
  Net production of TRP metabolites in media samples: KA: 4.48 ± 3.1
  Net production of TRP metabolites in media samples: KYN: 899.26 ± 383^
  Net production of TRP metabolites in media samples: QUIN: 42 ± 18.5
THP-1 (monocyte)
  Net production of TRP metabolites in media samples: 3-HK: 0.62 ± 1.4
  Net production of TRP metabolites in media samples: KA: −8.98 ± 2.2
  Net production of TRP metabolites in media samples: KYN: 101.24 ± 17.6
  Net production of TRP metabolites in media samples: QUIN: 12.08 ± 32.1
ALL3.1 (B-ALL)
  Net production of TRP metabolites in media samples: 3-HK: 6.76 ± 6.7
  Net production of TRP metabolites in media samples: KA: −1.1 ± 3.4
  Net production of TRP metabolites in media samples: KYN: 49.4 ± 114.2
  Net production of TRP metabolites in media samples: QUIN: −55.38 ± 21.2
BV173 (B-ALL)
  Net production of TRP metabolites in media samples: 3-HK: 9.94 ± 8.7
  Net production of TRP metabolites in media samples: KA: −3.56 ± 4.1
  Net production of TRP metabolites in media samples: KYN: 257.66 ± 175.9
  Net production of TRP metabolites in media samples: QUIN: 6.36 ± 32.9
CCRF-SB (B-ALL)
  Net production of TRP metabolites in media samples: 3-HK: 1.16 ± 6.5
  Net production of TRP metabolites in media samples: HAA: 5.3 ± 0.2
  Net production of TRP metabolites in media samples: KA: −6.78 ± 4^
  Net production of TRP metabolites in media samples: KYN: 93.56 ± 90.1
  Net production of TRP metabolites in media samples: QUIN: −47.16 ± 28.1
KARPAS231 (B-ALL)
  Net production of TRP metabolites in media samples: 3-HK: 5.48 ± 2.1
  Net production of TRP metabolites in media samples: HAA: 30.76 ± 4.2
  Net production of TRP metabolites in media samples: KA: −9.3 ± 5.1
  Net production of TRP metabolites in media samples: KYN: 200.48 ± 77.6
  Net production of TRP metabolites in media samples: QUIN: −42.74 ± 33.3
RS4; 11 (B-ALL)
  Net production of TRP metabolites in media samples: 3-HK: −1.96 ± 1.6
  Net production of TRP metabolites in media samples: KA: −6.3 ± 2.3
  Net production of TRP metabolites in media samples: KYN: −14 ± 22.7
  Net production of TRP metabolites in media samples: QUIN: 40.46 ± 24^
SUP-B15 (B-ALL)
  Net production of TRP metabolites in media samples: 3-HK: 19.38 ± 16.3
  Net production of TRP metabolites in media samples: HAA: 7.32 ± 1.1
  Net production of TRP metabolites in media samples: KA: −10.36 ± 4.4
  Net production of TRP metabolites in media samples: KYN: 292.4 ± 186.6
  Net production of TRP metabolites in media samples: QUIN: −79.6 ± 31.2

## IFNγ: cytokine
CCF-STTG1 (astrocytoma)
  Net production of TRP metabolites in media samples: 3-HK: −12.24 ± 1.2
  Net production of TRP metabolites in media samples: HAA: 8.88 ± 0.2
  Net production of TRP metabolites in media samples: KA: 8.2 ± 2.9
  Net production of TRP metabolites in media samples: KYN: 12049.08 ± 526
  Net production of TRP metabolites in media samples: QUIN: 1.34 ± 16
DOAY (medulloblastoma)
  Net production of TRP metabolites in media samples: 3-HK: −13.38 ± 1.5
  Net production of TRP metabolites in media samples: HAA: 10.66 ± 0.9
  Net production of TRP metabolites in media samples: KA: 11.08 ± 0.9
  Net production of TRP metabolites in media samples: KYN: 6757.9 ± 129.3
  Net production of TRP metabolites in media samples: QUIN: 34.8 ± 7^
HCN2 (cortical neuron)
  Net production of TRP metabolites in media samples: 3-HK: −4.84 ± 8.3
  Net production of TRP metabolites in media samples: HAA: 6.34 ± 1.1
  Net production of TRP metabolites in media samples: KA: 6.48 ± 4.8
  Net production of TRP metabolites in media samples: KYN: 1597.26 ± 77
  Net production of TRP metabolites in media samples: QUIN: 25.26 ± 27.11
HMC3 (microglia)
  Net production of TRP metabolites in media samples: 3-HK: 20.8 ± 20.5
  Net production of TRP metabolites in media samples: HAA: 0.76 ± 3.3
  Net production of TRP metabolites in media samples: KA: 48.46 ± 25.8
  Net production of TRP metabolites in media samples: KYN: 45327.9 ± 11654
  Net production of TRP metabolites in media samples: QUIN: 55.88 ± 34^
THP-1 (monocyte)
  Net production of TRP metabolites in media samples: 3-HK: 1.78 ± 1.9
  Net production of TRP metabolites in media samples: KA: −7.14 ± 5.2
  Net production of TRP metabolites in media samples: KYN: 2593.4 ± 153.7
  Net production of TRP metabolites in media samples: QUIN: −26.4 ± 68^
ALL3.1 (B-ALL)
  Net production of TRP metabolites in media samples: 3-HK: 8.76 ± 7.8
  Net production of TRP metabolites in media samples: KA: −3.32 ± 3.4
  Net production of TRP metabolites in media samples: KYN: 55.94 ± 132
  Net production of TRP metabolites in media samples: QUIN: 40.94 ± 140.3
BV173 (B-ALL)
  Net production of TRP metabolites in media samples: 3-HK: 1.06 ± 2.6
  Net production of TRP metabolites in media samples: KA: −4.58 ± 5^
  Net production of TRP metabolites in media samples: KYN: 46.72 ± 51.1
  Net production of TRP metabolites in media samples: QUIN: 6.54 ± 42.2
CCRF-SB (B-ALL)
  Net production of TRP metabolites in media samples: 3-HK: 1.9 ± 7.3
  Net production of TRP metabolites in media samples: HAA: 5.9 ± 0.5
  Net production of TRP metabolites in media samples: KA: −8.3 ± 5.5
  Net production of TRP metabolites in media samples: KYN: 410.1 ± 79.1
  Net production of TRP metabolites in media samples: QUIN: −53.44 ± 37.8
KARPAS231 (B-ALL)
  Net production of TRP metabolites in media samples: 3-HK: 90.74 ± 9.3
  Net production of TRP metabolites in media samples: HAA: 244.46 ± 24.4
  Net production of TRP metabolites in media samples: KA: −9.22 ± 3.8
  Net production of TRP metabolites in media samples: KYN: 1247.28 ± 62.2
  Net production of TRP metabolites in media samples: QUIN: −26.02 ± 27.3
RS4; 11 (B-ALL)
  Net production of TRP metabolites in media samples: 3-HK: 0.12 ± 1.4
  Net production of TRP metabolites in media samples: KA: −2.8 ± 7.2
  Net production of TRP metabolites in media samples: KYN: 26.58 ± 19.7
  Net production of TRP metabolites in media samples: QUIN: −4.26 ± 37.4
SUP-B15 (B-ALL)
  Net production of TRP metabolites in media samples: 3-HK: 18.5 ± 14.8
  Net production of TRP metabolites in media samples: HAA: 6.92 ± 0.9
  Net production of TRP metabolites in media samples: KA: −7.42 ± 3.2
  Net production of TRP metabolites in media samples: KYN: 299.52 ± 209^
  Net production of TRP metabolites in media samples: QUIN: −70 ± 31
